Test results taken from patent US20180186742A1, “PICOLINAMIDES AS FUNGICIDES” (Dow AgroSciences LLC, priority 2017, published 2018).
Read-outs that look alike come from different tables or passages of the source.

Experiments:
Assay type in all cases: in vivo
Puccinia triticina = experiment: Wheat brown rust (PUCCRT), disease control on wheat seedlings; conditions: low volume application at 121.5 g/H
Procedure, shortened: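 Compounds in acetone, diluted with nine volumes of water containing 110 ppm Triton X-100, sprayed to run-off on first-leaf Yuma wheat seedlings; track-spray tests used EC formulations with 0.1% Trycol 5941. Puccinia triticina spores applied before or after treatment. Overnight dark dew room at 22° C, 100% humidity, then greenhouse at 24° C.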

Zymoseptoria tritici = experiment: Leaf blotch of wheat (SEPTTR), disease control on wheat seedlings; conditions: low volume application at 121.5 g/H
Procedure, shortened: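 Yuma wheat seedlings with the first leaf fully emerged were sprayed to run-off with compound in acetone plus nine volumes of water containing 110 ppm Triton X-100; track-spray tests used EC formulations with 0.1% Trycol 5941. Z. tritici inoculation came before or after treatment, followed by 100% RH dew periods and a 20 °C greenhouse. Percent control was calculated from severity versus untreated plants.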

Phakopsora pachyrhizi = experiment: Asian soybean rust (PHAKPA), disease control on soybean seedlings; conditions: High volume application at 25 ppm
Description: Technical grades of materials were dissolved in acetone, which were then mixed with nine volumes of water containing 0.011% Tween 20. The fungicide solutions were applied onto soybean seedlings using an automated booth sprayer to run-off. All sprayed plants were allowed to air dry prior to further handling.
Soybean plants (variety Williams 82) were grown in soil-less Metro mix, with one plant per pot. Two week old seedlings were used for testing. Plants were inoculated either 3 days prior to or 1 day after fungicide treatments. Plants were incubated for 24 h in a dark dew room at 22° C. and 100% relative humidity then transferred to a growth room at 23° C. for disease to develop. Disease severity was assessed on the sprayed leaves.

[1] = 24 h, 1 Day Protectant, read-out: PUCCRT disease control, 1DP, LV activity
[2] = 72 h, 3 Day Curative, read-out: PUCCRT disease control, 3DC, LV activity
[3] = 24 h, 1 Day Protectant, read-out: SEPTTR disease control, 1DP, LV activity
[4] = 72 h, 3 Day Curative, read-out: SEPTTR disease control, 3DC, LV activity
[5] = 24 h, 1 Day Protectant, read-out: PHAKPA 1DP disease control rating
[6] = 72 h, 3 Day Curative, read-out: PHAKPA 3DC disease control rating
[7] = 24 h, 1 Day Protectant, wheat brown rust, read-out: PUCCRT 1DP disease control, LV activity
[8] = 72 h, 3 Day Curative, wheat brown rust, read-out: PUCCRT 3DC disease control, LV activity
[9] = 24 h, 1 Day Protectant, wheat leaf blotch, read-out: SEPTTR 1DP disease control, LV activity
[10] = 72 h, 3 Day Curative, wheat leaf blotch, read-out: SEPTTR 3DC disease control, LV activity

| SMILES | pest or weed control at 121.5 g/ha (Puccinia triticina; [1]) [%] | pest or weed control at 121.5 g/ha (Puccinia triticina; [2]) [%] | pest or weed control at 121.5 g/ha (Zymoseptoria tritici; [3]) [%] | pest or weed control at 121.5 g/ha (Zymoseptoria tritici; [4]) [%] | pest or weed control at 25 ppm (Phakopsora pachyrhizi; [5]) [%] | pest or weed control at 25 ppm (Phakopsora pachyrhizi; [6]) [%] | pest or weed control at 121.5 g/ha (Puccinia triticina; [7]) [%] | pest or weed control at 121.5 g/ha (Puccinia triticina; [8]) [%] | pest or weed control at 121.5 g/ha (Zymoseptoria tritici; [9]) [%] | pest or weed control at 121.5 g/ha (Zymoseptoria tritici; [10]) [%] |
| --- | --- | --- | --- | --- | --- | --- | --- | --- | --- | --- |
| COc1ccnc(C(=O)NCC(=O)O[C@@H](C)[C@H](c2ccc(F)cc2C)C(C)C)c1OC(C)=O [Compound 346] | > 80 | > 80 | < 80 | < 80 | > 80 | < 80 |  |  |  |  |
| COc1ccnc(C(=O)N[C@@H](C)C(=O)O[C@@H](C)[C@@H](c2ccc(C)cc2C)C2CCC2)c1OC(C)=O [Compound 241] | < 80 | < 80 | < 0 | > 80 | < 80 | < 80 |  |  |  |  |
| COc1ccnc(C(=O)N[C@@H](C)C(=O)O[C@@H](C)[C@H](c2ccc(F)cc2C)C2CCCC2)c1OCOC(C)=O [Compound 195] | > 80 | > 80 | > 80 | > 80 | > 80 | < 80 |  |  |  |  |
| COc1ccnc(C(=O)N[C@@H](C)C(=O)O[C@@H](C)[C@H](c2ccccc2)C(C)C)c1OCOC(C)=O [Compound 164] | > 80 | > 80 | > 80 | > 80 | > 80 | < 80 |  |  |  |  |
| COc1ccnc(C(=O)N[C@@H](C)C(=O)O[C@@H](C)[C@H](c2ccc(OC(F)(F)F)cc2)C(C)C)c1OC(C)=O [Compound 381] |  |  |  |  | < 80 | < 80 | > 80 | < 80 | > 80 | > 80 |
| CCC(C)[C@H](c1ccc(F)cc1C)[C@H](C)OC(=O)[C@H](C)NC(=O)c1nccc(OC)c1OC(C)=O (stereo partly drawn) [Compound 182] | > 80 | < 80 | < 80 | > 80 | < 80 | < 80 |  |  |  |  |
| COc1ccnc2c(=O)n([C@@H](C)C(=O)O[C@@H](C)[C@@H](c3ccc(C)cc3C)C3CCCCC3)c(=O)oc12 [Compound 210] | < 80 | < 0 | > 80 | < 80 | < 80 | < 80 |  |  |  |  |
| COc1ccnc(C(=O)N[C@@H](C)C(=O)O[C@@H](C)[C@H](c2ccc(Cl)cc2)C(C)C)c1OC(C)=O [Compound 242] | > 80 | > 80 | > 80 | > 80 | > 80 | < 80 |  |  |  |  |
| COc1ccnc(C(=O)N[C@@H](C)C(=O)O[C@@H](C)[C@@H](c2ccc(C)cc2F)C(C)C)c1OC(C)=O [Compound 369] |  |  |  |  | < 80 | < 80 | > 80 | < 80 | < 80 | < 80 |
| CCC(C)[C@@H](c1ccc(F)cc1C)[C@H](C)OC(=O)[C@H](C)NC(=O)c1nccc(OC)c1OC(C)=O (stereo partly drawn) [Compound 188] | > 80 | < 80 | > 80 | > 80 | > 80 | > 80 |  |  |  |  |
| CCC(CC)[C@H](c1ccc(F)cc1C)[C@H](C)OC(=O)[C@H](C)NC(=O)c1nccc(OC)c1OC(C)=O [Compound 179] | > 80 | < 0 | > 80 | > 80 | < 80 | < 80 |  |  |  |  |
